Experimental data published in patent US6624182B1, “Hydroxyphenylvinylthiazoles” (Ciba Specialty Chemicals Corporation, priority 1999, dated 2003).

What was measured:
Assay in all cases: Determination of the minimum inhibitory concentration (MIC value) in microtitre plates
A. niger = assay type: cell-based, Aspergillus niger ATCC 6275; conditions: optical density at 620 nm, 5 days at 28° C., MIC = ≦20% growth; tested at 100; 10 and 1 ppm (approximate values); (2), (3), (4) at 120; 60; 30; 15; 7.5; 3.75 ppm
How it was run: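 A. niger ATCC 6275 spores, adjusted to 1−5×10^6 KBE/ml and diluted 1:100 in Sabouraud 2% glucose bouillon, were exposed to 2-fold dilutions of DMSO-dissolved compounds for 5 days at 28°C. Growth read as OD at 620 nm. MIC is the lowest concentration giving ≤20% growth versus growth control, tested in duplicate.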

P. aeruginosa = assay type: cell-based, Pseudomonas aeruginosa CIP A-22; conditions: optical density at 620 nm, 48 hours at 37° C., MIC = ≦20% growth; tested at 100; 10 and 1 ppm (approximate values); (2), (3), (4) at 120; 60; 30; 15; 7.5; 3.75 ppm
How it was run: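 P. aeruginosa CIP A-22 at 1−5×10^6 KBE/ml, diluted 1:100 in CASO bouillon, exposed to 1:2 serial dilutions of DMSO-dissolved compound for 48 h at 37 °C, in duplicate. Growth read by OD 620 nm; MIC is the lowest concentration giving ≤20% growth relative to growth control.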

S. aureus = assay type: cell-based; conditions: optical density at 620 nm, 48 hours at 37° C., MIC = ≦20% growth; tested at 100; 10 and 1 ppm (approximate values); (2), (3), (4) at 120; 60; 30; 15; 7.5; 3.75 ppm
How it was run: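 DMSO-dissolved compounds were tested in 1:2 serial dilutions against bacteria in CASO bouillon, from inocula of 1−5×10^6 KBE/ml diluted 1:100. Growth was read by OD 620 nm after 48 h at 37 °C. MIC was the lowest concentration giving ≦20% growth versus the growth control, tested in duplicate.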

C. albicans = assay type: cell-based, Candida albicans ATCC 10231; conditions: optical density at 620 nm, 48 hours at 37° C., MIC = ≦20% growth; tested at 100; 10 and 1 ppm (approximate values); (2), (3), (4) at 120; 60; 30; 15; 7.5; 3.75 ppm
How it was run: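 Candida albicans ATCC 10231 grown overnight in CASO broth, adjusted to 1–5×10^6 CFU/ml then diluted 1:100, was exposed to 1:2 serial dilutions of compound (DMSO) for 48 h at 37 °C. Growth was read as OD620; MIC was the concentration giving ≤20% growth versus control, tested in duplicate.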

E. coli = assay type: cell-based, Escherichia coli NCTC 8196; conditions: optical density at 620 nm, 48 hours at 37° C., MIC = ≦20% growth; tested at 100; 10 and 1 ppm (approximate values); (2), (3), (4) at 120; 60; 30; 15; 7.5; 3.75 ppm
How it was run: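 E. coli NCTC 8196 grown overnight in CASO bouillon, adjusted to 1−5×10^6 KBE/ml, diluted 1:100 and added to DMSO-dissolved compounds in 1:2 dilution series. Incubated 48 h at 37° C; growth read as OD 620 nm. MIC is the lowest concentration giving ≤20% growth versus growth control; duplicates.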

CCc1csc(/C=C/c2ccc(OCc3ccccc3)cc2O)n1 [Compound of formula (49)]
>100 ppm: MIC values in ppm A. niger (A. niger) | MIC values in ppm P. aeruginosa (P. aeruginosa) | MIC values in ppm S. aureus (S. aureus) | MIC values in ppm C. albicans (C. albicans) | MIC values in ppm E. coli (E. coli)

CCc1csc(/C=C/c2ccc(O)cc2OC)n1 [Compound of formula (50)]
>100 ppm: MIC values in ppm A. niger (A. niger) | MIC values in ppm P. aeruginosa (P. aeruginosa) | MIC values in ppm S. aureus (S. aureus) | MIC values in ppm C. albicans (C. albicans) | MIC values in ppm E. coli (E. coli)

Oc1cccc(/C=C/c2nc(-c3ccccc3)cs2)c1 [Compound of formula (51)]
>100 ppm: MIC values in ppm A. niger (A. niger) | MIC values in ppm P. aeruginosa (P. aeruginosa) | MIC values in ppm S. aureus (S. aureus) | MIC values in ppm C. albicans (C. albicans) | MIC values in ppm E. coli (E. coli)

COc1ccc(/C=C/c2nc(-c3ccccc3)cs2)cc1O [Compound of formula (52)]
>100 ppm: MIC values in ppm A. niger (A. niger) | MIC values in ppm P. aeruginosa (P. aeruginosa) | MIC values in ppm S. aureus (S. aureus) | MIC values in ppm C. albicans (C. albicans) | MIC values in ppm E. coli (E. coli)

CCOc1cc(/C=C/c2nc(-c3ccccc3)cs2)ccc1O [Compound of formula (53)]
>100 ppm: MIC values in ppm A. niger (A. niger) | MIC values in ppm P. aeruginosa (P. aeruginosa) | MIC values in ppm S. aureus (S. aureus) | MIC values in ppm C. albicans (C. albicans) | MIC values in ppm E. coli (E. coli)

COc1cc(/C=C/c2nc(-c3ccccc3)cs2)ccc1O [Compound of formula (54)]
>100 ppm: MIC values in ppm A. niger (A. niger) | MIC values in ppm P. aeruginosa (P. aeruginosa) | MIC values in ppm S. aureus (S. aureus) | MIC values in ppm C. albicans (C. albicans) | MIC values in ppm E. coli (E. coli)

COc1ccc(/C=C/c2nc(-c3ccccc3)cs2)c(O)c1 [Compound of formula (55)]
>100 ppm: MIC values in ppm A. niger (A. niger) | MIC values in ppm P. aeruginosa (P. aeruginosa) | MIC values in ppm S. aureus (S. aureus) | MIC values in ppm C. albicans (C. albicans) | MIC values in ppm E. coli (E. coli)

Oc1ccccc1/C=C/c1nc(-c2ccccc2)cs1 [Compound of formula (56)]
>100 ppm: MIC values in ppm A. niger (A. niger) | MIC values in ppm P. aeruginosa (P. aeruginosa) | MIC values in ppm S. aureus (S. aureus) | MIC values in ppm C. albicans (C. albicans) | MIC values in ppm E. coli (E. coli)

COc1cc(/C=C/c2nc(-c3ccccc3)cs2)cc(O)c1OC [Compound of formula (57)]
>100 ppm: MIC values in ppm A. niger (A. niger) | MIC values in ppm P. aeruginosa (P. aeruginosa) | MIC values in ppm S. aureus (S. aureus) | MIC values in ppm C. albicans (C. albicans) | MIC values in ppm E. coli (E. coli)

Cc1cc(/C=C/c2nc(-c3ccccc3)cs2)cc(C)c1O [Compound of formula (58)]
>100 ppm: MIC values in ppm A. niger (A. niger) | MIC values in ppm P. aeruginosa (P. aeruginosa) | MIC values in ppm S. aureus (S. aureus) | MIC values in ppm C. albicans (C. albicans) | MIC values in ppm E. coli (E. coli)

Cc1cccc(/C=C/c2nc(-c3ccccc3)cs2)c1O [Compound of formula (59)]
>100 ppm: MIC values in ppm A. niger (A. niger) | MIC values in ppm P. aeruginosa (P. aeruginosa) | MIC values in ppm S. aureus (S. aureus) | MIC values in ppm C. albicans (C. albicans) | MIC values in ppm E. coli (E. coli)

Oc1cc(OCc2ccccc2)ccc1/C=C/c1nc(-c2ccccc2)cs1 [Compound of formula (60)]
>100 ppm: MIC values in ppm A. niger (A. niger) | MIC values in ppm P. aeruginosa (P. aeruginosa) | MIC values in ppm S. aureus (S. aureus) | MIC values in ppm C. albicans (C. albicans) | MIC values in ppm E. coli (E. coli)

COc1cc(O)ccc1/C=C/c1nc(-c2ccccc2)cs1 [Compound of formula (61)]
>100 ppm: MIC values in ppm A. niger (A. niger) | MIC values in ppm P. aeruginosa (P. aeruginosa) | MIC values in ppm S. aureus (S. aureus) | MIC values in ppm C. albicans (C. albicans) | MIC values in ppm E. coli (E. coli)
